In patent US9593113B2, “Imide and acylurea derivatives as modulators of the glucocorticoid receptor” (BRISTOL-MYERS SQUIBB COMPANY, priority 2013, dated 2017):
pKi: −log10 of the molar value. Where two headings read alike, the source gives them in different places.

Columns and labels:
[1] = molecular target: human full-length glucocorticoid receptor (Homo sapiens (Human), UniProt P04150); assay: Glucocorticoid Receptor Binding Assay (II), fluorescence polarization competitor kit; details: for Ki: read-out: GR (Ki, nM) (measured in GR binding Assay II)
Sequence of human full-length glucocorticoid receptor (P04150 whole entry): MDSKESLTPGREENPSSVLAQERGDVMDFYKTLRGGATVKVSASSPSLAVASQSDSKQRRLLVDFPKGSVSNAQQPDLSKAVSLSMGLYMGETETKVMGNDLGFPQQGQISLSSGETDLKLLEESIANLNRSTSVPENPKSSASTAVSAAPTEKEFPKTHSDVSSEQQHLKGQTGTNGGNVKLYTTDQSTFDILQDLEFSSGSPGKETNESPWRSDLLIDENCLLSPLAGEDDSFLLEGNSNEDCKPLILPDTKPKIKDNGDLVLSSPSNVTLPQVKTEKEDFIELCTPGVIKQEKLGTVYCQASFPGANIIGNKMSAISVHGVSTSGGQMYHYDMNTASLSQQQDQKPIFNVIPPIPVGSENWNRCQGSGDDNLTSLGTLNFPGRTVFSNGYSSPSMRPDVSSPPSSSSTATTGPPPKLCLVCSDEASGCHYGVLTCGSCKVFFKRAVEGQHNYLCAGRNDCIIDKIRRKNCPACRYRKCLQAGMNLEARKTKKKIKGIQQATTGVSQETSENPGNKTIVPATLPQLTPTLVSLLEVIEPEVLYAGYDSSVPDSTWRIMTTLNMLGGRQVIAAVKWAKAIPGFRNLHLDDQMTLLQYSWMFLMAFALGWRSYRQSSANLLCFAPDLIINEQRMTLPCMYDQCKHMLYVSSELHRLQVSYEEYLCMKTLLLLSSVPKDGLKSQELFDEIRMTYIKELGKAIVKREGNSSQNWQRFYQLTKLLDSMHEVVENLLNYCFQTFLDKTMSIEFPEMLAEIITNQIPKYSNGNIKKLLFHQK
Experimental: In order to measure the binding of compounds on the glucocorticoid receptor a commercially available kit was used (Glucocorticoid receptor competitor assay kit, PanVera Co., Madison, Wis., P2816). Briefly, a cell lysate containing recombinantly expressed human full-length glucocorticoid receptor was mixed with a fluorescently labeled glucocorticoid (1 nM Fluormone GS1) in the presence or absence of test compound. After one hour at room temperature, the fluorescence polarization (FP) of the samples were measured.

[2] = system: AP-1 induced transcriptional activity; assay: Cellular transrepressional assay (AP-1 luciferase reporter, PMA-activated A549 cell); type: cell-based; details: for EC50: read-out: AP-1 (EC50, nM) (measured in cellular transrepression assay)
Experimental: To measure the ability of test molecules to inhibit AP-1 induced transcriptional activity we utilized an A549 cell which was stably transfected with a plasmid containing 7×AP-1 DNA binding sites (pAP-1-Luc plasmid, Stratagene Co., La Jolla, Calif.) followed by the gene for luciferase. Cells were activated with 10 ng/ml of phorbol myristic acid (PMA) plus or minus test molecules for 7 hours. After 7 hours a luciferase reagent was added to measure luciferase enzymatic activity in the cell. After a 10 minute incubation of luciferase reagent with cells, luminescence was measured in a TOPCOUNT® luminescence counter. Repression of AP-1 activity was calculated as the percentage decrease in the signal induced by PMA alone. Test molecules were analyzed in the concentration range from 0.1 nM to 40 μM. EC50s were determined by using standard curve fitting methods such as Excel fit (Microsoft Co.). An EC50 is the test molecule concentration at which there is a 50% repression of the maximal inhibition of transcription, i.e., a 50% reduction of AP-1 activity.

[3] = A549 cell, 10 ng/ml PMA, 7 hours
[4] = Homo sapiens, A549 cell, 10 ng/ml PMA, 7 hours

Row | SMILES | Ki [1] [nM] | EC50 [2, 4] [nM] | EC50 [2, 3] [nM] | pKi [1] | AP-1 Max % inhibition (measured in cellular transrepression assay) [2, 3] [%] | AP-1 Max % inhibition (measured in cellular transrepression assay) [2] [%] | EC50 [2] [nM]
1 | CC(C)(C(=O)NC(N)=O)[C@@H]1c2ccc(-c3ccc(C(=O)N4CCCC4)cc3)nc2Oc2c(F)cccc21 [Example 30] | 0.72 |  | 1.59 |  | 63.94 |  | 
2 | CCS(=O)(=O)c1ccc(-c2ccc3c(n2)Oc2c(F)cccc2[C@@H]3C(C)(C)C(=O)NC(N)=O)cc1 [Example 31] | 0.43 |  | 5.55 |  | 56.84 |  | 
3 | CC(C)S(=O)(=O)c1ccc(-c2ccc3c(n2)Oc2c(F)cccc2[C@@H]3C(C)(C)C(=O)NC(N)=O)cc1 [Example 32] | 3.55 |  | 4.89 |  | 59.56 |  | 
4 | CC(C)Oc1ccc(-c2ccc3c(n2)Oc2c(F)cccc2[C@@H]3C(C)(C)C(=O)NC(N)=O)cc1 [Example 34] | 0.25 |  | 1.24 |  | 68.62 |  | 
5 | CC(C)Oc1ccc(-c2ccc3c(n2)Oc2c(F)cccc2[C@@H]3C(C)(C)C(=O)NC(N)=O)cc1F [Example 35] | 0.4 |  | 7.5 |  | 54.04 |  | 
6 | CC(C)Oc1ccc(-c2ccc3c(n2)Oc2ccccc2[C@@H]3C(C)(C)C(=O)NC(N)=O)cc1 [Example 36] | 0.8 |  | 16.2 |  | 59.83 |  | 
7 | CC(C)(C(=O)NC(N)=O)[C@H]1c2ccccc2Oc2nc(-c3ccc(C(=O)N4CCCC4)cc3)ccc21 [Example 40] | 1.93 |  | 8.69 |  | 68.22 |  | 
8 | CC(C)(C(=O)NC(N)=O)[C@@H]1c2ccc(-c3ccc(-n4cnnn4)cc3)nc2Oc2c(F)cccc21 [Example 45] | 0.82 |  | 7.77 |  | 55.41 |  | 
9 | CC(C)(C(=O)NC(N)=O)[C@@H]1c2ccc(-c3ccc(C(=O)N4CCCC4)nc3)nc2Oc2c(F)cccc21 [Example 46] | 1.97 |  | 16.5 |  | 65.90 |  | 
10 | CC(C)(C(=O)NC(N)=O)[C@H]1c2ccccc2Oc2nc(-c3ccc(C(=O)N4CCCC4)c(F)c3)ccc21 [Example 51] | 1.34 |  | 13.2 |  | 65.20 |  | 
11 | CC(C)(C(=O)NC(N)=O)[C@H]1c2ccccc2Oc2nc(-c3ccc(C(=O)N4CCCC4)c(Cl)c3)ccc21 [Example 52] | 123 |  | 815 |  | 57.02 |  | 
12 | CC(C)(C(=O)NC(N)=O)[C@H]1c2ccccc2Oc2nc(-c3ccc(C(=O)N4CCCC4)nc3)ccc21 [Example 54] | 7.65 |  | 67.2 |  | 55.36 |  | 
13 | CC(C)Oc1ccc(-c2ccc3c(n2)Oc2ccccc2[C@@H]3C(C)(C)C(=O)NC(N)=O)cn1 [Example 57] | 4.23 |  | 128 |  | 73.98 |  | 
14 | CC(C)Nc1ccc(-c2ccc3c(n2)Oc2c(F)cccc2[C@@H]3C(C)(C)C(=O)NC(N)=O)cn1 [Example 60] | 1.13 |  |  |  |  | 66.44 | 2.9
15 | CC(=O)Nc1ccc(-c2ccc3c(n2)Oc2c(F)cccc2[C@@H]3C(C)(C)C(=O)NC(N)=O)cn1 [Example 61] | 4.26 |  | 31.1 |  | 39.15 |  | 
16 | CC(C)(C(=O)NC(N)=O)[C@@H]1c2ccc(-c3ccc(NC4CC4)nc3)nc2Oc2c(F)cccc21 [Example 62] | 1.15 |  | 8.24 |  | 64.75 |  | 
17 | CC(C)(C(=O)NC(N)=O)[C@@H]1c2ccc(-c3ccc(C(=O)O)nc3)nc2Oc2c(F)cccc21 [Example 63] | 10.8 |  | 142 |  | 39.61 |  | 
18 | CC(C)(C(=O)NC(N)=O)[C@@H]1c2ccc(-c3ccc(N4CCCCC4)nc3)nc2Oc2c(F)cccc21 [Example 64] | 1.7 |  |  |  |  | 44.43 | 72.5
19 | CC(C)Oc1ccc(-c2ccc3c(n2)Oc2ccccc2[C@@H]3C(C)(C)C(=O)NC(N)=O)cn1 [Example 65] | 0.5 |  | 4.89 |  | 54.73 |  | 
20 | CC(=O)Nc1ccc(-c2ccc3c(n2)Oc2ccccc2[C@@H]3C(C)(C)C(=O)NC(N)=O)cn1 [Example 66] | 2.66 |  | 39.7 |  | 36.83 |  | 
21 | Cc1nnn(-c2ccc(-c3ccc4c(n3)Oc3ccccc3[C@@H]4C(C)(C)C(=O)NC(N)=O)cc2)n1 [Example 67] | 1.51 |  | 4.98 |  | 53.28 |  | 
22 | CC(C)(O)c1ccc(-c2ccc3c(n2)Oc2ccccc2[C@@H]3C(C)(C)C(=O)NC(N)=O)cc1 [Example 70] | 1.19 | 8.94 |  |  | 79.50 |  | 
23 | CC(C)(C(=O)NC(N)=O)C1c2ccccc2Oc2ccccc21 [Example 75] | 32 | 5000 |  |  | 10.32 |  | 
24 | CC(C)(C(=O)NC(N)=O)[C@H]1c2ccccc2Oc2nc(-c3cc[n+]([O-])cc3)ccc21 [Example 76] | 119 |  | 327 |  | 23.09 |  | 

More lines, main results first:

Row | Ki [1] [nM] | EC50 [2, 4] [nM] | EC50 [2, 3] [nM] | pKi [1] | SMILES | AP-1 Max % inhibition (measured in cellular transrepression assay) [2, 3] [%] | AP-1 Max % inhibition (measured in cellular transrepression assay) [2] [%] | EC50 [2] [nM]
25 | 3.33 | 646 |  |  | COc1ccc(CNC(=O)NC(=O)C(C)(C)[C@@H]2c3ccc(-c4ccc(C(C)(C)O)cc4)nc3Oc3c(F)cccc32)cc1 [Example 29] | 51.82 |  | 
26 | 0.59 |  | 5.82 |  | CC(C)(C(=O)NC(N)=O)[C@@H]1c2ccc(-c3ccc(S(C)(=O)=O)cc3)nc2Oc2c(F)cccc21 [Example 33] | 64.54 |  | 
27 | 1.74 |  | 14.1 |  | CCC(C)c1ccc(-c2ccc3c(n2)Oc2ccccc2[C@@H]3C(C)(C)C(=O)NC(N)=O)cc1 (stereo partly drawn) [Example 38] | 56.33 |  | 
28 | 0.93 |  | 13 |  | CCS(=O)(=O)c1ccc(-c2ccc3c(n2)Oc2ccccc2[C@@H]3C(C)(C)C(=O)NC(N)=O)cc1 [Example 39] | 58.23 |  | 
29 | 0.91 |  | 5.39 |  | CCCCc1ccc(-c2ccc3c(n2)Oc2c(F)cccc2[C@@H]3C(C)(C)C(=O)NC(N)=O)cc1 [Example 43] | 67.14 |  | 
30 | 1.09 |  | 13.3 |  | CC(C)(C(=O)NC(N)=O)[C@H]1c2ccccc2Oc2nc(-c3ccc(C(=O)N4CCC(F)(F)C4)c(F)c3)ccc21 [Example 49] | 67.00 |  | 
31 | 1.76 |  | 15.3 |  | CC(C)(C(=O)NC(N)=O)[C@H]1c2ccccc2Oc2nc(-c3ccc(C(=O)N4CCC(F)(F)C4)cc3)ccc21 [Example 50] | 69.26 |  | 
32 | 369 |  | 2500 |  | CC(C)(C(=O)NC(N)=O)[C@H]1c2ccccc2Oc2nc(-c3ccc(C(=O)N4CCC(F)(F)C4)c(Cl)c3)ccc21 [Example 53] | 28.67 |  | 
33 | 24.9 |  | 72.6 |  | CN(C)c1ccc(-c2ccc3c(n2)Oc2ccccc2[C@@H]3C(C)(C)C(=O)NC(N)=O)cn1 [Example 58] | 45.16 |  | 
34 |  | 8.57 |  | 9.20 | CC(C)Oc1ccc(-c2ccc3c(n2)Oc2c(F)cccc2[C@@H]3C(C)(C)C(=O)NC(N)=O)cn1 [Example 68] | 61.39 |  | 
35 | 25.9 | 93.6 |  |  | CN1CCN(c2ncc(-c3ccc4c(n3)Oc3c(F)cccc3[C@@H]4C(C)(C)C(=O)NC(N)=O)cn2)CC1 [Example 71] | 39.16 |  | 
36 | 4.71 | 36 |  |  | CC(C)(C(=O)NC(N)=O)[C@H]1c2ccccc2Oc2nc(-c3ccncc3)ccc21 [Example 72] | 37.36 |  | 
37 | 1.72 | 20.1 |  |  | CC(C)(C(=O)NC(N)=O)[C@@H]1c2ccc(-c3ccncc3)nc2Oc2c(F)cccc21 [Example 73] | 55.78 |  | 
38 | 1.11 | 5.89 |  |  | CC(C)(C(=O)NC(N)=O)[C@@H]1c2ccc(-c3ccc(C(=O)N4CCCCC4)cc3)nc2Oc2c(F)cccc21 [Example 83] | 86.42 |  | 
39 | 1.2 | 0.8 |  |  | CC(C)(C(=O)NC(N)=O)[C@@H]1c2ccc(-c3ccc(C(=O)N4CC[C@@H](F)C4)cc3)nc2Oc2c(F)cccc21 [Example 85] | 76.00 |  | 
